Test results taken from publication PMC12323867 (RSC Medicinal Chemistry, 2025).
Where “and” joins values, the source holds several entries; their conditions need not be identical. Equal entries are not always repeated. Where two headings read alike, the source gives them in different places.

Legend:
[1] = target: T1, LSD1-HDAC1-CoREST complex (Homo sapiens, UniProt O60341); test: LSD1 HRP-coupled demethylase assay, SP2509/SP2577 analogues; type: biochemical
T1 construct: full length native LSD1 (UniProt ID: O60341); made in house; host or cells: HEK 293F cells (co-transfection, pcDNA3 vectors)
Description: The analogues synthesised were then tested for their ability to inhibit LSD1 using purified LSD1-HDAC1-CoREST complex (Fig. 2B). We used an established fluorescent read out horseradish peroxidase (HRP) assay to monitor LSD1 enzymatic activity in the CoREST complex[8] (see ESI ^† for full details).
2. Supplementary Information: Biology
2.1. LSD-HDAC1-CoREST expression and purification
Lysis Buffer (Buffer A) Wash Buffer (Buffer B)
• 50 mM Tris/Cl pH 7.5 • 50 mM Tris/Cl pH 7.5
• 50 mM Potassium Acetate • 50 mM Potassium Acetate […]
Cleavage Buffer (Buffer C) Gel Filtration Buffer (Buffer D)
• 50 mM Tris/Cl pH 7.5 Filtered at vacuum.
• 50 mM Potassium Acetate • 50 mM Tris/Cl pH 7.5
• 5 % v/v Glycerol • 50 mM Potassium Acetate
• 0.5 mM tris(2- • 0.5 mM TCEP carboxyethyl)phosphine (TCEP)
The CoREST ternary complex was comprised of full length native LSD1 (UniProt ID: O60341), full length HDAC1 (UniProt ID: Q13547) and N-terminally truncated RCOR1 (86-485aa) (UniProt ID:
Q9UKL0). Protein constructs were cloned into pcDNA3 vector. The RCOR1 constructs contained an N-terminal (His)10(Flag)3 tag followed by a Tev protease cleavage site. The constructs for ternary complex were co-transfected into suspension-grow HEK 293F cells (Thermofisher Scientific) with polyethylenimine (PEI) (Sigma) and harvested after 48 hours. This section of the procedure was carried out as described previously in literature.11,12
Cell pellets from 1.2 L culture were defrosted, and buffer A (30 mL) was added. The solution was sonicated (Soniprep 150) in an beaker of ice using a 9 mm probe at 10 ampules; operated with 10 […]
2.2. SP2509/SP2577 analogues LSD1 HRP-coupled demethylase assay protocol The commercial reagents for the assay were HRP and Amplex® Ultrared, which are available to purchase from ThermoFisher (31490) and Invitrogen (10737474), respectively. HRP was made up to 8 mg/mL stock solution in 1xPBS buffer, divided into 10 µL aliquots, snap-frozen in liquid nitrogen and stored at -80 °C. Amplex® Ultrared was made up to 10 mM solution in DMSO, divided into 20 µL aliquots and wrapped in foil, away from light and stored at -20 °C. For each assay experiment, CoREST complex was diluted to 500 nM in assay buffer (20 mM HEPES pH 7.5 and 50 mM NaCl).
HRP was defrosted by diluting each aliquot in 90 µL 1xPBS solution, making a 0.8 mg/mL solution.
Amplex® Ultrared was made up to 200 µM in assay buffer. HRP and Amplex® Ultrared were pre-mixed before addition to the plate. H3K4Me2 substrate (4 mM in deionised water) was diluted to 300 µM in assay buffer. All stocks were stored on ice during assay preparation.
The assay was carried out using a ‘black well’ 96 well plate (Corning no. 3915) in a reaction volume of 100 μL. The final concentrations in the assay were as follows: 50 nM CoREST complex, 10 μM Amplex® UltraRed, 0.04 mg/mL HRP and 15 μM H3K4Me2 peptide substrate. The final DMSO concentration in each well was 1.1 %. Three wells of each experiments were designated ‘background controls’ and contained 85 μL assay buffer, premixed Amplex® UltraRed and HRP (10 µL) and H3K4Me peptide substrate (300 μM, 5 µL).
A stock solution of inhibitor (1 -5 mM in DMSO) was subjected to an inhibitor dilution series, in Eppendorf tubes, in 100 % DMSO. Each new inhibitor stock (4 μL) was diluted in assay buffer (1 in 75) within a new Eppendorf set with assay buffer (20 mM HEPES pH 7.5 and 50 m M NaCl), ensuring the percentage of DMSO was consistent throughout the series. To each well of interest, Inhibitor in assay buffer (75 μL) was added, and CoREST complex (500 nM, 10 µL) was added thereafter. The plate was placed on a rocker and pre -incubated for 30 mins. To each well, premixed Amplex® UltraRed and HRP (10 µL) was added before H3K4Me 2 peptide substrate in assay buffer solution (300 μM, 5 µL) was added to the wall of the plate. The plate was covered in foil and spun down for one minute before being placed in the plate reader. The final percentage concentration of DMSO in […]

LSD1 = details: evaluated not part of the CoREST complex; read-out: LSD1 IC50; cited from earlier work
HCT116 cells = test: CTG cell viability assay; type: cell-based, human; details: HCT116, CellTiter-Glo, 0.0041-10 uM, 24-48 h (Fig. S3)
Description: 2.4. CTG cell viability assays
HCT116 cells were seeded onto 96-well plates at a density of 2000 cells/well and allowed 24 h to settle. Cells were then treated with LSD1 inhibitors (0.0041-10 uM) alongside WT, DMSO and cell free control wells for 24-48 h. After this time, plates were equilibrated to RT for 30 mins, then CellTiter-Glo (Promega, G9242) reagent (5 uL/100 uL media) was added. Cells were lysed on an orbital shaker for 10 mins, then incubated at RT for 2 mins to allow luminescence to stabilise, following which luminescence was recorded on a HiDEX Sense microplate reader. To obtained plotted values, luminescence of each tested well was divided by that of the DMSO control, which were plotted against concentration using GraphPad Prism. […] was applied to obtain apparent IC50 values where possible.
Figure S3. Cell viability dose response curves
(1 picture or pasted object on this page, not shown here)

SMILES: C/C(=N\NC(=O)c1cccc(S(=O)(=O)N2CCOCC2)c1)c1cc(Cl)ccc1O [SP2509, reference compound]
- IC50 ([1]; LSD1 enzymatic activity, complex 50 nM, HRP assay, SP2509 value is mean of three sets, read-out: LSD1-HDAC1-CoREST IC50): 54.2 nM
- IC50 ([1]; per parallel set, each set with SP2509 as reference standard, read-out: IC50 from dose response curves (Figure S1)): 52 nM and 56 nM and 55 nM
- IC50 (LSD1): 13 nM
- cytotoxic effects in cells (HCT116 cells): significant cytotoxic effects
